Measured values published in patent US11548935B2 (NeoMatrix Therapeutics Inc., priority 2016, dated 2023).
Entries after “also recorded” stand apart in the source; their conditions may differ. Peptide text beside a SMILES is read from it.

Experiments:
[1] = system: Adult human dermal fibroblasts CF31 cells; assay: Fibroblast metabolism (XTT) assay with 1 nM PDGF-BB, 6 days; assay type: cell-based; conditions: for bioactivity as determined by fibroblast metabolism assay: FIG. 2, XTT OD 450 nm
Description: Adult human dermal fibroblasts CF31 cells at 1000 cells/well were seeded in a collagen-coated 96-well plate in DMEM overnight, then 1 nM PDGF-BB with peptides at indicated doses was added and cells were incubated at 37° C. for 6 days. Then cell metabolism was measured by XTT assay by reading OD at 450 nm. Each point represents the mean of 6 replicates with a typical SD=5-10% around the mean (not shown for graft clarity).
Adult human dermal fibroblasts, CF31, at 1000 cells/well were incubated at 37° C. in a collagen-coated 96-well plate with DMEM, 1 nM PDGF-BB with peptides at indicated doses for 6 days and then cell metabolism was measured by XTT assay, reading OD at 450 nm. Data represent the mean of 6 replicates.
P12, P46, cNP7 and cNP8 were compared for their ability to promote the survival of adult human dermal fibroblasts in the presence of PDGF-BB. Adult human dermal fibroblasts at 1000 cells/well were incubated in a collagen-coated 96-well plate with DMEM, 1 nM PDGF-BB with peptides at indicated doses for 6 days and then cell metabolism was measured by XTT assay. Data represent the mean of 6 replicates (FIG. 4).

PDGF-BB = PDGF-BB (Homo sapiens, UniProt P01127); assay: Surface plasmon resonance (Biacore) binding to growth factor; conditions: plasmon surface resonance (Biacore T200)
Description: (§1) To study the binding activities of these peptides, real time interactions of P12, P46, and cNP8 with growth factors were determined by plasmon surface resonance (Biacore T200).
In the Biacore2000 system, binding constants from kinetic data are determined by passing varying concentrations of FN peptides (analytes) over chip surfaces which are coupled with PDGF-BB (ligand), respectively. All kinetic experiments are carried out at 20° C. at a flow rate of 20 μl/min. For mass transport experiments, each analyte is injected at a fixed concentration and run at flow rates ranging from 5 to 75 μl/min. All analytes are injected over PDGF-BB ligand surfaces as well as over a control surface for 120 s, followed by 300 s of dissociation in running buffer. Regeneration of the sensor chip for subsequent injections is accomplished by pulse of 0.1% SDS. Mass transport experiments have detected little difference in response at different flow rates thus validating data from kinetic experiments. Sensorgrams are prepared and globally fitted using nonlinear least-squares analysis and numerical integration of the differential rate equations with the Biacore Bioevaluation software. […] Each data set, which consists of a series of sensorgrams from injections of different concentration of analyte over the same surface, is analyzed using kinetic models from Bioevaluation software.

burn wounds [2] = assay: Intravenous treatment in porcine vertical progression burn model; assay type: in vivo, pig; conditions: intravenous infusion 0.001, 0.01 or 0.1 mg/kg
Description: The vertical progression burn model (as shown in above topical experiment) was used to create burns on the backs of each of 4 pigs. Twenty burns (80° C./20 seconds) were made on the backs of each pig—one set of burns was made 8 hours prior to infusion, the second set was made 4 hours prior to infusion. Three pigs were treated with infusions of 0.001, 0.01 or 0.1 mg/kg of cNP8 and one pig was treated with an infusion of buffer, as control. Lyophilized cNP8 was reconstituted in PBS (11.6 mg/ml corrected-based on 75% pure) to get a 5 mM stock solution in the laboratory and filtered with a syringe filter with 0.22 um membrane. The concentration of filtered cNP8 solution was determined by reading OD280 and the concentration was calculated based on OD280=6.76 per mM cNP8. The cNP8 was diluted to 5 mM with PBS as necessary. The filtered cNP8 solution was aliquoted and stored at −80° C. Just before infusion, cNP8 was further diluted: a) 1:270 with PBS to get a 0.019 mM cNP8 solution. The injection amount was 3 ml/kg body weight of 0.019 mM cNP8 which is equal to 0.1 mg/kg body weight. b) 1:2700 with PBS to get a 0.0019 mM cNP8 solution. The injection was 3 ml/kg body weight of 0.0019 mM cNP8 which is equal to 0.01 mg/kg body weight. c) 1:27000 with PBS to get a 0.00019 mM cNP8 solution. The injection amount was 3 ml/kg body weight of 0.00019 mM cNP8 which is equal to 0.001 mg/kg body weight. […]

burn wounds [3] = assay: Topical treatment of porcine deep partial-thickness burns (PLO gel); assay type: in vivo, pig; conditions: 48-hour debrided wounds, 10 days after wounding, vs control or cP12 (FIG. 6)
Description: Four female, 20-30 kg, domestic pigs were used for cutaneous wound procedures.
Study Protocol: The animals were sedated with Talazine (Tiletamine and Zolazepam, Fort Dodge Lab, Fort Dodge, Iowa) 5 mg/kg IM. The pigs were then intubated endotracheally and maintained under a surgical plane of anesthesia with isoflurane 0.5-2.5% in room air. The flank and back hair were clipped with electric hair clippers and the skin was scrubbed with a povidone iodine solution.
Standardized deep partial-thickness burns were created on the animals' backs and flanks by applying a 2.5-cm by 2.5-cm, 150-gram aluminum bar preheated in hot water to 80° C. The burns were created on either side of the vertebral column between the forelegs and hind legs. The heated bar was wiped dry just prior to application to prevent water droplets from creating a steam burn on the skin. The bar was then placed at a vertical position perpendicular to the skin's surface and applied for a period of 20 seconds with all pressure supplied by gravity. […] 24 burns were evenly distributed on both sides of the back of four pigs. […] Debridement was performed by gently rubbing dry gauze against the surface of the burn until the necrotic epidermis was peeled away from the entire burn surface. Interventions: On the back skin of each pig, equal sets of 4 burns were randomly treated with one of the 6 study treatments. […]

[4] = target: insulin-like growth factor-1 (IGF-1) (Homo sapiens, UniProt P05019); assay: Surface plasmon resonance (Biacore) binding to growth factor; conditions: plasmon surface resonance (Biacore T200)
Description: as §1

[5] = target: epidermal growth factor (EGF) (Homo sapiens, UniProt P01133); assay: as above; conditions: plasmon surface resonance (Biacore T200)
Description: as §1

[6] = target: Transforming Growth Factor-Beta1 (TGF-β1) (Homo sapiens, UniProt P01137); assay: as above; conditions: plasmon surface resonance (Biacore T200)
Description: as §1

[7] = system: human neutrophil elastase; assay: purified human neutrophil elastase; conditions: up to 24 h
[8] = system: adult human dermal fibroblast; assay: Screening experiment of adult human dermal fibroblast survival in medium without serum with 1 nM PDGF-BB; assay type: cell-based; conditions: 6 days of incubation
[9] = target: T1, human neutrophil elastase (Homo sapiens, UniProt P08246)
T1 sequence (P08246 30-267): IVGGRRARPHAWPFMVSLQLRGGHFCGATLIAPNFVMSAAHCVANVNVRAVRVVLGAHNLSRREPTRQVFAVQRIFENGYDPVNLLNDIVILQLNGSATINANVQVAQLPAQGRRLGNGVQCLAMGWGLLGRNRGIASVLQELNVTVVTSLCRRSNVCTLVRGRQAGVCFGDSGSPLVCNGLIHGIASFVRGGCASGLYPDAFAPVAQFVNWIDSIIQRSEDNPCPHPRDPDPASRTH
Description: P46 was incubated with purified human neutrophil elastase at 1:100 enzyme:substrate molar ratio at 37° C. for 4 h (3A) or 24 h (3B). Peptides stability was determined by MALDI-TOF analysis.
Peptides' stability was determined by MALDI-TOF analysis.
The reaction was stopped with formic acid and the reaction mixture was analyzed by mass spectroscopy.
To determine the sensitivity of P46 to elastase digestion, P46 was synthesized and digested with elastase. […] P46 was incubated with purified human neutrophil elastase at 1:100 enzyme:substrate molar ratio at 37° C. for 4 h (FIG. 3A) or 24 h (FIG. 3B). The elastase-generated smaller peptides were determined by MALDI-TOF analysis.
Peptide's stability was determined by MALDI-TOF analysis.

Chain of PDGF-BB (P01127 82-190 limits assumed): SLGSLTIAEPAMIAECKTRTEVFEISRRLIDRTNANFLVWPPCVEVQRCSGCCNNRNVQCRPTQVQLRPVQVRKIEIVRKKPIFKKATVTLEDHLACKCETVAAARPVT
Chain of Transforming Growth Factor-Beta1 (TGF-β1) (P01137 279-390 limits assumed, species assumed): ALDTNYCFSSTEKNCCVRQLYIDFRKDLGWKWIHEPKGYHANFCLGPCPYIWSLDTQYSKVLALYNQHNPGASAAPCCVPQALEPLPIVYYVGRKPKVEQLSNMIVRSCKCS
Chain of insulin-like growth factor-1 (IGF-1) (P05019 49-118, species assumed): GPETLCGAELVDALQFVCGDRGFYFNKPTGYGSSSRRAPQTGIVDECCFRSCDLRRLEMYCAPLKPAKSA
Chain of epidermal growth factor (EGF) (P01133 971-1023 limits assumed, species assumed): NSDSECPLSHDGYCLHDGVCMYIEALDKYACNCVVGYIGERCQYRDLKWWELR

CC[C@H](C)[C@@H]1NC(=O)[C@H](Cc2c[nH]cn2)NC(=O)[C@H](C(C)C)NC(=O)[C@H](CO)NC(=O)CNC(=O)[C@H](CCCCN)NC(=O)[C@@H]2CCCN2C(=O)[C@H](CCCNC(=N)N)NC(=O)[C@H](Cc2c[nH]c3ccccc23)NC(=O)[C@H](CCCNC(=N)N)NC(=O)[C@H](CC(C)C)NC(=O)CNC(=O)[C@H](Cc2ccc(O)cc2)NC(=O)[C@H](CCCCN)NC(=O)CNC1=O [cNP8, HIGKYGLRWRPKGSV] (cyclo(HIGKYGLRWRPKGSV))
bioactivity compared with other peptides ([1]; FIG. 4, XTT): equivalent or better bioactivity; also recorded: much higher bioactivity than that of P12
promotion of survival of adult human dermal fibroblasts in the presence of PDGF-BB ([1]; FIG. 4, XTT): promoted the survival of adult human dermal fibroblasts
binding to PDGF-BB (PDGF-BB): bind
re-epithelialization (burn wounds [2]; day 10 post-injury (FIG. 7)): markedly increased; also recorded: increase of re-epithelialization
re-epithelialization (burn wounds [2]; day 14 post-injury (FIG. 8)): markedly increased; also recorded: increase of re-epithelialization
re-epithelialization (burn wounds [3]): markedly increased
binding to IGF-1 [4]: did not bind
binding to EGF [5]: did not bind
binding to TGF-β1 [6]: bind

PSHISKYILRWRPK
fragment found [7]: KYILRWRPKPSHIS; also recorded: RWRPKPSHISKYIL

HIGKYGLRWRPKGSV (polypeptide according to formula I) [NP8, engineered peptide designed from P46]
biological activity on screening experiment of fibroblast survival [8]: best biological activity

HISKYILGWRPKNSV (NP9 peptide) [engineered peptide designed from P46]
biological activity on screening experiment of fibroblast survival [8]: minimal biological activity

HISKYILRWGPKNSV (NP11 peptide) [engineered peptide designed from P46]
biological activity on screening experiment of fibroblast survival [8]: minimal biological activity

cyclo(HIGKYGLRWRPKGSV) (SMILES CC[C@H](C)[C@@H]1NC(=O)[C@H](Cc2c[nH]cn2)NC(=O)[C@H](C(C)C)NC(=O)[C@H](CO)NC(=O)CNC(=O)[C@H](CCCCN)NC(=O)[C@@H]2CCCN2C(=O)[C@H](CCCNC(=N)N)NC(=O)[C@H](Cc2c[nH]c3ccccc23)NC(=O)[C@H](CCCNC(=N)N)NC(=O)[C@H](CC(C)C)NC(=O)CNC(=O)[C@H](Cc2ccc(O)cc2)NC(=O)[C@H](CCCCN)NC(=O)CNC1=O)
not cleaved ([7]; 37° C.): A large majority of intact peptide was retained at 24 h

HISKYILRWRPKNSV (polypeptide according to formula I) [P46]
bioactivity as determined by fibroblast metabolism assay [1]: much higher bioactivity than that of P12
promotion of survival of adult human dermal fibroblasts in the presence of PDGF-BB ([1]; FIG. 4, XTT): promoted the survival of adult human dermal fibroblasts
binding to PDGF-BB (PDGF-BB): bind
binding to IGF-1 [4]: did not bind
binding to EGF [5]: did not bind
binding to TGF-β1 [6]: bind
sensitivity to elastase digestion [9]: retained some sensitivity to elastase digestion

SKYILRWRPKNSV (P45 peptide) [peptide produced by elastase digestion of FN III1-C]
bioactivity as determined by fibroblast metabolism assay [1]: little bioactivity

PSHISKYILRWRPK [cP12]
degradation by neutrophil elastase [9]: remain sensitive to this endopeptidase
number of elastase-cleavage sites [9]: five

HISKYILRGRPKNSV (NP10 peptide) [engineered peptide designed from P46]
biological activity on screening experiment of fibroblast survival [8]: minimal biological activity

HIGKYGLRWRPKNSV [cNP7, cyclic form of engineered peptide NP7]
promotion of survival of adult human dermal fibroblasts in the presence of PDGF-BB ([1]; FIG. 4, XTT): promoted the survival of adult human dermal fibroblasts
